Test results as given in ChEMBL document CHEMBL5036336, “Structure-Guided Optimization Provides a Series of TTK Protein Inhibitors with Potent Antitumor Activity” (J Med Chem, 2021).
≈ marks a conversion by molar mass, not a printed value.

What was measured:
[1] = molecular target: T1, Dual specificity protein kinase TTK (Homo sapiens, UniProt P33981); experiment: Displacement of kinase tracer 236 from TTK (unknown origin) by LanthaScreen Eu kinase binding assay
T1 sequence (P33981 whole entry): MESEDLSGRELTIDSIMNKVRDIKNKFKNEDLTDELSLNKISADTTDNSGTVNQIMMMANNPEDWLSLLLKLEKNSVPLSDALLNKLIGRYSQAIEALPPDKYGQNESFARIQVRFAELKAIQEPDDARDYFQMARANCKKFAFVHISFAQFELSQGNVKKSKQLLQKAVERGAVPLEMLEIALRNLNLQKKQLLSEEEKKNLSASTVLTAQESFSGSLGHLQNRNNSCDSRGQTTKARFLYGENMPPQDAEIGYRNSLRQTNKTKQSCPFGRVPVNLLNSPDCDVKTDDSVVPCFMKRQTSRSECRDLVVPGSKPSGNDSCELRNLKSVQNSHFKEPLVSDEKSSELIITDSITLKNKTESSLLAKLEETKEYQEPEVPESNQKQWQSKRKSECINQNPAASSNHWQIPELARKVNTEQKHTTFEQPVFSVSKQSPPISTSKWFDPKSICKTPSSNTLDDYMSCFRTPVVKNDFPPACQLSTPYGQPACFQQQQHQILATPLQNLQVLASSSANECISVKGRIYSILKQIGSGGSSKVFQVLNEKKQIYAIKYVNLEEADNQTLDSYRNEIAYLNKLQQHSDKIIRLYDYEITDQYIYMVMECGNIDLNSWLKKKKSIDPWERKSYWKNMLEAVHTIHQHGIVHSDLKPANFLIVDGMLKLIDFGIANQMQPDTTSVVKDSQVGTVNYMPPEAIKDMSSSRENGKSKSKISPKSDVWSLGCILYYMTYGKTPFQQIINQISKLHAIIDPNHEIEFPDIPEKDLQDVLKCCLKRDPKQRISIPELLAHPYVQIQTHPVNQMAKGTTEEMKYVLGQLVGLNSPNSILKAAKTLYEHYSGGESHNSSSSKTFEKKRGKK

CAL-51 = experiment: Antiproliferative activity against human CAL-51 cells assessed as inhibition of cell proliferation measured after 3 days by Cell Titer-Glo luminescence based assay; format: functional; settings: CAL-51, 72 h
[2] = Clearance in rat at 2 mg/kg, iv; format: ADME, organism-based; settings: in vivo
Cytochrome P450 3A4 = Cytochrome P450 3A4 (Homo sapiens, UniProt P08684); experiment: Inhibition of CYP3A4 in human liver microsomes using […] as substrate incubated for 5 mins in presence of NADPH by LC-MS/MS analysis; format: ADME
Chain of Cytochrome P450 3A4 (P08684 whole entry): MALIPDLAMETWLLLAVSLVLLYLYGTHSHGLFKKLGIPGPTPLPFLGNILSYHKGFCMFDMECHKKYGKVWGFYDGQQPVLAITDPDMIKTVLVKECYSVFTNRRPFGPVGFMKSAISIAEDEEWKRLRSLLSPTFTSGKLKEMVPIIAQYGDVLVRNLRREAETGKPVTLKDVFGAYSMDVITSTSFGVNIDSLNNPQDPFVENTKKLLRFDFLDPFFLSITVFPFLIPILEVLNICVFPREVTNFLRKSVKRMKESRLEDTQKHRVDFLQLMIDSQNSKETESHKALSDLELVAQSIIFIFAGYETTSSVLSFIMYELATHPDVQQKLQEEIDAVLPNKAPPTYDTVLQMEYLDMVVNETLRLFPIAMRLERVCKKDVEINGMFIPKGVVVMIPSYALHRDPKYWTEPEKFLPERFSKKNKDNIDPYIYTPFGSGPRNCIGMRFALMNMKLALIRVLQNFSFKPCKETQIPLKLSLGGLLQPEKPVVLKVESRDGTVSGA

[3] = Kinetic solubility of compound in PBS at pH 7.4 at 200 uM incubated for 24 hrs by UPLC/MS analysis; format: physicochemical; settings: read-out: Kinetic_solubility

| SMILES | IC50 [1] | clearance [2] | IC50 (Cytochrome P450 3A4) | solubility kinetic at 24 h, 200 µM [3] | IC50 (CAL-51) |
| --- | --- | --- | --- | --- | --- |
| COc1cc(N2CCN(C3COC3)CC2)ccc1Nc1nc(O[C@H]2CCOC(C)(C)C2)c2cc[nH]c2n1 |  |  | > 5000 nM |  |  |
| CCc1cccc(CC)c1N1CCn2cc(-c3nc(Nc4ccc(N5CCN(CC(=O)N(C)C)CC5)cc4OC)nc4[nH]ccc34)cc2C1=O | 9 nM | 23 mL/min/kg |  | 1.4 µM (≈ 0.946 µg/mL) | 11 nM |
| CCc1cccc(CC)c1N1CCn2cc(-c3nc(Nc4ccc(N5CCC(O)(CN6CCN(C)CC6)CC5)cc4OC)nc4[nH]ccc34)cc2C1=O | 2.8 nM | 15 mL/min/kg | > 5000 nM | 150 µM (≈ 108 µg/mL) | 8 nM |
| CNC(=O)c1ccc(Nc2nc(OC3CCCC3)c3c(-c4ccc5nc(C)oc5c4)c[nH]c3n2)c(OC)c1 |  |  | 280 nM |  |  |
| CCc1cccc(CC)c1N1CCn2cc(-c3nc(Nc4ccc(N5CCC(N6CCN(C)CC6)CC5)cc4OC)nc4[nH]ccc34)cc2C1=O | 4 nM | 52 mL/min/kg | > 5000 nM | 6 µM (≈ 4.13 µg/mL) | 9 nM |
| CCc1cccc(CC)c1NC(=O)c1cc(-c2nc(Nc3ccc(N4CCC(O)(CN5CCN(C)CC5)CC4)cc3OC)nc3[nH]ccc23)n(C)n1 | 2 nM | 56 mL/min/kg | > 5000 nM | 162 µM (≈ 115 µg/mL) | 19 nM |
| CCc1cccc(CC)c1NC(=O)c1cc(-c2nc(Nc3ccc(N4CCC(N5CCN(C)CC5)CC4)cc3OC)nc3[nH]ccc23)n(C)n1 | 6 nM | 15 mL/min/kg | > 5000 nM | 18 µM (≈ 12.2 µg/mL) | 17 nM |
| CCc1cccc(CC)c1N1CCn2cc(-c3nc(Nc4ccc(N5CCC(O)(C(=O)N6CCN(C)CC6)CC5)cc4OC)nc4[nH]ccc34)cc2C1=O | 7.5 nM | 20 mL/min/kg | > 5000 nM | 2 µM (≈ 1.46 µg/mL) | 12 nM |
| CCc1cccc(CC)c1NC(=O)c1cc(-c2nc(Nc3ccc(N4CCC(O)(C(=O)N5CCN(C)CC5)CC4)cc3OC)nc3[nH]ccc23)n(C)n1 | 3 nM | 31 mL/min/kg | > 5000 nM | 5 µM (≈ 3.6 µg/mL) | 20 nM |
| CCc1cccc(CC)c1NC(=O)c1cc(-c2nc(Nc3ccc(N4CCN(CC(=O)N(C)C)CC4)cc3OC)nc3[nH]ccc23)n(C)n1 | 3 nM | 20 mL/min/kg |  | 3 µM (≈ 1.99 µg/mL) | 22 nM |
| CCc1cccc(CC)c1N1CCn2cc(-c3nc(Nc4ccc(N5CCC(C(=O)N(C)CCN(C)C)CC5)cc4OC)nc4[nH]ccc34)cc2C1=O | 5.3 nM | 27 mL/min/kg | 3900 nM | 125 µM (≈ 89.7 µg/mL) | 7 nM |

Further lines, with some results ahead:

| IC50 [1] | clearance [2] | IC50 (Cytochrome P450 3A4) | solubility kinetic at 24 h, 200 µM [3] | SMILES | IC50 (CAL-51) |
| --- | --- | --- | --- | --- | --- |
| 2 nM | 22 mL/min/kg | 3100 nM |  | CCc1cccc(CC)c1NC(=O)c1ccn(-c2nc(Nc3ccc(N4CCC(C(=O)N5CCN(C)CC5)CC4)cc3OC)nc3[nH]ccc23)c1 | 10 nM |
| 2 nM | 68 mL/min/kg | 2000 nM | 53 µM (≈ 35.1 µg/mL) | CCc1cccc(CC)c1NC(=O)c1ccn(-c2nc(Nc3ccc(N4CCC(N5CCN(C)CC5)CC4)cc3OC)nc3[nH]ccc23)c1 | 6 nM |
| 2 nM |  | 1900 nM | 1 µM (≈ 0.706 µg/mL) | CCc1cccc(CC)c1NC(=O)c1ccn(-c2nc(Nc3ccc(N4CCC(O)(C(=O)N5CCN(C)CC5)CC4)cc3OC)nc3[nH]ccc23)c1 | 10 nM |
| 1 nM |  | 1200 nM | 37 µM (≈ 25.6 µg/mL) | CCc1cccc(CC)c1NC(=O)c1ccn(-c2nc(Nc3ccc(N4CCC(O)(CN5CCN(C)CC5)CC4)cc3OC)nc3[nH]ccc23)c1 | 4 nM |
| 5.6 nM | 1.7 mL/min/kg | > 5000 nM | 0.8 µM (≈ 0.573 µg/mL) | CCc1cccc(CC)c1N1CCn2cc(-c3nc(Nc4ccc(N5CCC(C(=O)N6CCN(C)CC6)CC5)cc4OC)nc4[nH]ccc34)cc2C1=O | 5 nM |
| 4 nM | 19 mL/min/kg | > 5000 nM | 2 µM (≈ 1.41 µg/mL) | CCc1cccc(CC)c1NC(=O)c1cc(-c2nc(Nc3ccc(N4CCC(C(=O)N5CCN(C)CC5)CC4)cc3OC)nc3[nH]ccc23)n(C)n1 | 17 nM |
| 1 nM |  |  | 0.5 µM (≈ 0.325 µg/mL) | CCc1cccc(CC)c1NC(=O)c1ccn(-c2nc(Nc3ccc(N4CCN(CC(=O)N(C)C)CC4)cc3OC)nc3[nH]ccc23)c1 | 10 nM |
